5 compounds from ChEMBL document CHEMBL3600320, “An oxidative coupling product of luteolin with cysteine ester and its enhanced inhibitory activity for xanthine oxidase” (Bioorg Med Chem Lett, 2015) can be followed below.

The target in data set [1] is T1, Xanthine dehydrogenase/oxidase (Homo sapiens, UniProt P47989). As to the kind of experiment: Inhibition of xanthine oxidase (unknown origin) using xanthine as substrate after 10 mins by HPLC method.
Data set [2] deals with T1, Xanthine dehydrogenase/oxidase. As to the kind of experiment: Inhibition of xanthine oxidase (unknown origin) using xanthine as substrate at 33 to 100 umol/L after 10 mins by HPLC method relative to control.

T1 sequence (P47989 whole entry): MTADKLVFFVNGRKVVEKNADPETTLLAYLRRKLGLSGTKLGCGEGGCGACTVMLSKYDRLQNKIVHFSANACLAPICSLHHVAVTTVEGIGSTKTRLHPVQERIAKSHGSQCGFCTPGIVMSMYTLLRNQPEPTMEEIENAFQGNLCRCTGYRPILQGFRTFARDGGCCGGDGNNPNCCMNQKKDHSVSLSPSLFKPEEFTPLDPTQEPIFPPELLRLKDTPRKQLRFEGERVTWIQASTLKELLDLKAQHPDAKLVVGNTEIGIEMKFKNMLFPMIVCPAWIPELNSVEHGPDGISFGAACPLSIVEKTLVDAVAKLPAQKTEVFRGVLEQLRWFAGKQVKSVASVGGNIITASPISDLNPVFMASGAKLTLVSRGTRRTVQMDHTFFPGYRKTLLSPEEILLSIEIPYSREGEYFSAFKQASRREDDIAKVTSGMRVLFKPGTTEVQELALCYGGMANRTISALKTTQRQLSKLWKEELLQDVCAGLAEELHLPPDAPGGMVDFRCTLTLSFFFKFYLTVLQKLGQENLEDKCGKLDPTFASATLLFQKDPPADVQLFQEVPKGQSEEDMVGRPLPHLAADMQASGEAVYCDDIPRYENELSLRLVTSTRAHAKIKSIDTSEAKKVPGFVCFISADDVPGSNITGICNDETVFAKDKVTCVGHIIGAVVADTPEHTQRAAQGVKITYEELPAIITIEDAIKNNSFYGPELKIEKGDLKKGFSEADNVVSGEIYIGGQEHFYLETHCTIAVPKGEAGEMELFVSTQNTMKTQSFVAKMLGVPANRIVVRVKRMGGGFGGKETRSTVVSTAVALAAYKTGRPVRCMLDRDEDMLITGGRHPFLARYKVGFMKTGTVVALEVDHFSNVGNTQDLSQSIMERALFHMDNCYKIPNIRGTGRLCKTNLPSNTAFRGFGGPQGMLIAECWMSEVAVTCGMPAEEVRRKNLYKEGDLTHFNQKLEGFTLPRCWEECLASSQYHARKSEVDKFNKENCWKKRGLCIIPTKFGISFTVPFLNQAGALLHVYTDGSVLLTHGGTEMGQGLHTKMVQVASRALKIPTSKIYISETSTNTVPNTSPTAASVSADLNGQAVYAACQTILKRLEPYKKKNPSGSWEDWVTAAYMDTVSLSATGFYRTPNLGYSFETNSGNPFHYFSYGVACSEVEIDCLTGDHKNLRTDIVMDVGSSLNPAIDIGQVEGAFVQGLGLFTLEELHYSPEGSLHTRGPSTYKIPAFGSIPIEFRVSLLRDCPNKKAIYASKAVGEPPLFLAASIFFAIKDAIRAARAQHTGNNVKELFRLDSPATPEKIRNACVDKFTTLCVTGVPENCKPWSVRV

`CCOC(=O)C1=Nc2c(O)ccc(-c3cc(=O)c4c(O)cc(O)cc4o3)c2SC1` yielded an IC50 in data set [1] of 1.7 µM. In addition, the “inhibition (INH)” value in data set [1] (human, 10 min) is listed as “Dose-dependent effect”.
As to `O=c1c(O)c(-c2ccc(O)cc2)oc2cc(O)cc(O)c12` [KAEMPFEROL], the “inhibition (INH)” value in data set [2] is recorded as over 50%.
As to `O=c1cc(-c2ccc(O)c(O)c2)oc2cc(O)cc(O)c12` [LUTEOLIN], the “inhibition (INH)” value in data set [2] was over 50%. Also, it took 7.8 µM to reach half-maximal inhibition in data set [1] (IC50).
`O=c1c(O)c(-c2cc(O)c(O)c(O)c2)oc2cc(O)cc(O)c12` [MYRICETIN]: the “inhibition (INH)” value in data set [2] was over 50%.
Still for that read-out and setting: for `O=c1c(O)c(-c2ccc(O)c(O)c2)oc2cc(O)cc(O)c12` [QUERCETIN] the value was over 50%.
